This is an account of results in patent US20150031541A1 (priority 2012, published 2015).

For this test, the system named is Plasmopara viticola. In words: Plasmopara viticola/Grape/Curative (Grape Downy Mildew). The class given is in vivo. The settings on record: 200 ppm; grape seedlings cv. Gutedel, inoculated one day before application; compared to untreated. The method, then: Plasmopara viticola/Grape/Curative (Grape Downy Mildew)
5-week-old grape seedlings cv. Gutedel are inoculated by spraying a sporangia suspension on their lower leaf surface one day before application. The inoculated grape plants are sprayed in a spray chamber with the formulated test compound diluted in water. The inoculated test plants are incubated at 22° C. and 100% rh in a greenhouse and the percentage leaf area covered by disease is assessed when an appropriate level of disease appears on untreated check plants (4-6 days after application).

Turning to `CSC1CN(C(=O)Cn2nc(C(F)F)cc2C(F)F)CCC1c1nc(C2=NOC(c3c(F)cccc3F)C2)cs1` (stereo not shown) [I.az.223, 2-[3,5-bis(difluoromethyl)pyrazol-1-yl]-1-[4-[4-[5-(2,6-difluorophenyl)-4,5-dihydroisoxazol-3-yl]thiazol-2-yl]-3-methylsulfanyl-1-piperidyl]ethanone], the disease control entry is recorded as “at least 80%”.
